Experiments:
Assay type in all cases: in vitro ADME
AKR1C = AKR1C activity in rat liver subcellular fraction; settings: 100 µM sesquiterpene, control 14.8 ± 1.8
Experimental: (§1) Enzyme activities were assayed in human and rat liver cytosolic and microsomal fractions. The enzyme assays (each performed in 4–8 replicates) were repeated three times (HPLC measurement of CYP activities was repeated only twice, Table 3). Inhibition studies were carried out by incubation of specific substrates in the presence of sesquiterpenes (in the range 0–100 µM).
(§2) The assays of all other enzymes were based on spectrophotometric detection of product formed or detection of decreasing substrate/cofactor levels using microplate reader Tecan Infinite M200 in cytosolic or microsomal fractions. Enzyme activities were determined using slight modifications of previously-published methods: carbonyl reducing enzymes (AKR1A, AKR1C, CBR1 [45], NQO1 [46]), UDP-glucuronosyltransferase (UGT [47]), sulfotransferase (SULT [48]), and cytosolic glutathione-S-transferase (GST [49]).
(§3) Sesquiterpenes CNER, TNER and FAR, non-volatile liquids, were pipetted, and proper concentration was calculated according to density. All compounds were dissolved in DMSO. The final solvent concentration in the inhibition assays was 1%, which had no effect on the enzyme activity (data not shown). Non-enzymatic interference of sesquiterpenes with some compounds in the reaction mixtures (e.g., fluorescence enhancing or quenching) was considered and excluded. All experiments were performed in three replicates, if not stated otherwise.
(§4) CNER, TNER and FAR at a fixed concentration of 100 µM were screened for inhibition of cytosolic AKR1A1, AKR1C, CBR1, NQO1, SULT, and GST, and microsomal CYPs and UGT. The degree of inhibition caused by sesquiterpenes was compared with non-inhibited control reactions, which contained solvent without sesquiterpenes.

SULT = SULT activity in rat liver subcellular fraction; settings: 100 µM sesquiterpene, control 8.74 ± 0.52
Experimental: as §1, §2, §3, §4

CYP2B/3A = CYP2B/3A (BROD activity, benzyloxyresorufin O-debenzylation) in rat liver microsomes; settings: for IC50: probe benzyloxyresorufin; for Specific Activity, CYP2B/3A (BROD activity): in the presence of 100 µM sesquiterpene, control 1.74 ± 0.02
Experimental: as §1
(§5) Enzyme activities of individual CYP forms were measured according to established protocols. The following microsomal CYP activities were tested: CYP2A6, coumarin 7-hydroxylation; CYP2B6, 7-ethoxy-4-(trifluoromethyl)coumarin 7-deethylation, CYP2C9, diclofenac 4′-hydroxylation, CYP2C19 assay, S-mephenytoin 4′-hydroxylation, CYP2D6 on bufuralol 1′-hydroxylation, CYP2E1, chlorzoxazone 6-hydroxylation and CYP3A4, testosterone 6β-hydroxylation, and midazolam 1′-hydroxylation. Activities were measured using the Prominence HPLC system (Shimadzu, Kyoto, Japan), equipped with a LiChroCART 250-4 LiChrospher 100 RP-18 column or Chromolith®HighResolution RP-18 end-capped column (Merck, Darmstadt, Germany) and UV or fluorescence detection, according to the cited literature. Further incubation details are described either in the corresponding references, as well as in the papers from this laboratory e.g., [42, 43, 44]. CYP1A2, 7-ethoxyresorufin O-deethylation, and CYP3A4/2B6 (human), CYP2B1 (rat), benzyloxyresorufin O-debenzylation were measured using the microplate reader Tecan Infinite M200 (Tecan Group; Mannedorf, Switzerland).
as §3, §4
The concentration of sesquiterpenes required for 50% inhibition of enzyme activity, the IC50 value, was determined. Their final concentrations in the reaction mixture were proposed to cover the entire inhibitory range of these compounds (1–100 µM). The IC50 values for each sesquiterpene were determined by plotting sigmoidal dose response curves of specific enzyme activity vs. logarithm of sesquiterpene concentration using GraphPad Prism version 6.07 for Windows (GraphPad Software Inc., La Jolla, CA, USA).
(§6) The kinetic inactivation study of the CYP1A2 (EROD activity) and CYP2B/3A (BROD activity), both in rat and human, with TNER, was performed to find out the mechanism of enzyme inhibition by this sesquiterpene. Mechanism of EROD and BROD inhibition was tested at the final ethoxyresorufin or benzyloxyresorufin concentrations 0.5–5.0 µM. The concentration of TNER was 5.0 µM.
(§7) Experimental data were fitted to the Michaelis-Menten equation, basic kinetic parameters were determined using the program GraphPad Prism version 6.07 for Windows. The type of inhibition was estimated using a Lineweaver-Burk (double-reciprocal) plot.

CYP1A2 = molecular target: T1, CYP1A2 (Homo sapiens, UniProt P05177); experiment: CYP1A2 (EROD activity, 7-ethoxyresorufin O-deethylation) in human liver microsomes; settings: for Specific Activity, CYP1A2 (EROD activity): in the presence of 100 µM sesquiterpene, control 1.88 ± 0.19; for inhibition at 5 µM: liver microsomes, probe 7-ethoxyresorufin, human, 5 µM inhibitor
T1 construct: Frozen liver (both rat and human) was thawed; from tissue; host or cells: human liver microsomal fraction
T1 sequence (P05177 1-516): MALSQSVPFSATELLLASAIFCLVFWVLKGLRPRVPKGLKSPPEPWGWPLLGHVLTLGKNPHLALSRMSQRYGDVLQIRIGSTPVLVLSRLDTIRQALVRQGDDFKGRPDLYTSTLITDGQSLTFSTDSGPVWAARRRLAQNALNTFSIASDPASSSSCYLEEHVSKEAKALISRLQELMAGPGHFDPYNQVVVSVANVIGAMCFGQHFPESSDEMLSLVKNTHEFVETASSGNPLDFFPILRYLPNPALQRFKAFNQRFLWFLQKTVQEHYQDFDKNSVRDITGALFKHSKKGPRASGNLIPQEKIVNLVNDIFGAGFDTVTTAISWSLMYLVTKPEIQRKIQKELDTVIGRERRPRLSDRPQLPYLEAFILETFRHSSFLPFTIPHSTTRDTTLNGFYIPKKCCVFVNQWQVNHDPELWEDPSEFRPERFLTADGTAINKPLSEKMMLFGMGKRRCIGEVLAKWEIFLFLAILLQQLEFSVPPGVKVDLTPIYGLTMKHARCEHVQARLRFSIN
Experimental: as §1, §5
Sesquiterpenes CNER, TNER and FAR, non-volatile liquids, were pipetted, and proper concentration was calculated according to density. All compounds were dissolved in DMSO. […] All experiments were performed in three replicates, if not stated otherwise.
as §4
The concentration of sesquiterpenes required for 50% inhibition of enzyme activity, the IC50 value, was determined. […] The IC50 values for each sesquiterpene were determined by plotting sigmoidal dose response curves of specific enzyme activity vs. logarithm of sesquiterpene concentration using GraphPad Prism version 6.07 for Windows (GraphPad Software Inc., La Jolla, CA, USA).
as §6, §7

AKR1A = molecular target: T2, AKR1A (Homo sapiens, UniProt P14550); experiment: AKR1A activity in human liver subcellular fraction; settings: 100 µM sesquiterpene, control 8.45 ± 0.90
T2 construct: Frozen liver (both rat and human) was thawed; from tissue; host or cells: human liver cytosolic fraction
T2 sequence (P14550 1-325): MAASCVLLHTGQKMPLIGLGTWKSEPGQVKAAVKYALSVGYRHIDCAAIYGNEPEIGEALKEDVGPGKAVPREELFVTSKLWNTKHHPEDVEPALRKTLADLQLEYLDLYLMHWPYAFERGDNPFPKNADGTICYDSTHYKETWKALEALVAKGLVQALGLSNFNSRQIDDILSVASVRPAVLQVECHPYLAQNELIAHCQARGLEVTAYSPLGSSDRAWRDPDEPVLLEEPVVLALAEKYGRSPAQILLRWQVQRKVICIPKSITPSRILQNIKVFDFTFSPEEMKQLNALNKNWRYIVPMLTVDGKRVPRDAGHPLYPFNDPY
Experimental: as §1, §2, §3, §4

| Structure (SMILES) | Specific activity, AKR1C (AKR1C) | Specific activity, SULT (SULT) | IC50 (CYP2B/3A; rat liver microsomes) | K’M (CYP2B/3A; rat liver microsomes, benzyloxyresorufin 0.5–5.0 µM in the presence of TNER 5 µM, KM without TNER 0.74 ± 0.12) | V’MAX (CYP2B/3A; rat liver microsomes, benzyloxyresorufin 0.5–5.0 µM in the presence of TNER 5 µM, VMAX without TNER 7.04 ± 0.35) | Specific Activity, CYP2B/3A (BROD activity) (CYP2B/3A; rat liver microsomes) | type of inhibition, BROD activity (CYP2B/3A; rat microsomes, 5 µM TNER, benzyloxyresorufin 0.5–5.0 µM) | IC50 (CYP1A2; human liver microsomes) | Ki (CYP1A2; human liver microsomes, EROD activity) | Specific Activity, CYP1A2 (EROD activity) (CYP1A2; human liver microsomes) | type of inhibition, CYP1A2 (EROD) (CYP1A2; human microsomes, 5 µM TNER, ethoxyresorufin 0.5–5.0 µM) | inhibition at 5 µM (CYP1A2) | Specific activity, AKR1A (AKR1A) |
| --- | --- | --- | --- | --- | --- | --- | --- | --- | --- | --- | --- | --- | --- |
| C=CC(C)(O)CC/C=C(\C)CCC=C(C)C (stereo not drawn) [TNER, trans-nerolidol] | 14.8 ± 1.6 nmol/mg/min | 8.48 ± 0.28 nmol/mg/min | 5.11 µM | 1.26 ± 0.39 µM | 0.81 ± 0.09 nM/min | 0.153 ± 0.008 pmol/mg/min | non-competitive | 8.69 µM | 0.92 ± 0.52 µM | 0.287 ± 0.013 pmol/mg/min | competitively | 38% | 6.75 ± 0.22 nmol/mg/min |
| CC(C)=CCC/C(C)=C/CC/C(C)=C/CO [FAR, farnesol] | 14.9 ± 1.5 nmol/mg/min | 8.55 ± 0.30 nmol/mg/min | 4.43 µM | – | – | 0.212 ± 0.003 pmol/mg/min | – | 1.83 µM | – | 0.083 ± 0.005 pmol/mg/min | – | 77% | 7.62 ± 0.30 nmol/mg/min |
| C=CC(C)(O)CC/C=C(/C)CCC=C(C)C (stereo not drawn) [CNER, cis-nerolidol] | 14.6 ± 2.1 nmol/mg/min | 8.74 ± 0.26 nmol/mg/min | 6.47 µM | – | – | 0.331 ± 0.009 pmol/mg/min | – | 2.49 µM | – | 0.163 ± 0.005 pmol/mg/min | – | 50% | 6.88 ± 0.29 nmol/mg/min |

From article PMC6154719 (Molecules : A Journal of Synthetic Chemistry and Natural …, 2017)
